Assay results taken from patent US20230265151A1, “GIP/GLP1 CO-AGONIST COMPOUNDS” (priority 2020, published 2023).
Read-outs that look alike come from different tables or passages of the source.

Assays:
Assay type in all cases: cell-based
hGIPR = molecular target: T1, hGIPR (Homo sapiens, UniProt P48546); test: Functional cAMP formation (HTRF) in HEK-293 clonal cells expressing hGIPR, 0.1% bovine casein, without or with 1.0% human serum albumin; details: for EC50: geometric mean, read-out: hGIPR EC50, nM (SEM, n); for Emax: read-out: hGIPR Emax, % ± SEM
T1 construct: expressed in transfected cells
T1 sequence (P48546 22-466): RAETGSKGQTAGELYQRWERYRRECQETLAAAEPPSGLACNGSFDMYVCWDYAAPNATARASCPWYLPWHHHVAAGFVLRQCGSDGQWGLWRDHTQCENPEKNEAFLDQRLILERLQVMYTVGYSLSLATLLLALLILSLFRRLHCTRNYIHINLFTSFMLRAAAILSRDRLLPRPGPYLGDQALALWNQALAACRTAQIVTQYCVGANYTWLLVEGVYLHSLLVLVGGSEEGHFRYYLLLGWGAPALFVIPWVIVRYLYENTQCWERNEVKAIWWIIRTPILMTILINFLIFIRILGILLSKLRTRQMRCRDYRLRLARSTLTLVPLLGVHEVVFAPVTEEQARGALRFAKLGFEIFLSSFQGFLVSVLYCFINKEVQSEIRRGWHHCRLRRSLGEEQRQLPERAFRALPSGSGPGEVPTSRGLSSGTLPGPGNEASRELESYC
Method in brief: (§1)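 Readings of the HTRF 665/620 nm ratio, which falls as cAMP rises, were converted to nM cAMP using a standard curve after 30 min peptide exposure at 37° C.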

hGCGR = molecular target: T2, hGCGR (Homo sapiens, UniProt P47871); test: Functional cAMP formation (HTRF) in HEK-293 clonal cells expressing hGCGR, 0.1% bovine casein, without or with 1.0% human serum albumin; details: geometric mean, read-out: hGCGR EC50, nM (SEM, n)
T2 construct: expressed in transfected cells
Method in brief: as §1

hGLP-1R = hGLP-1R (Homo sapiens, UniProt P43220); test: Functional cAMP formation (HTRF) in HEK-293 clonal cells expressing hGLP-1R, 0.1% bovine casein, without or with 1.0% human serum albumin; design: expressed in transfected cells; details: for EC50: geometric mean, read-out: hGLP-1R EC50, nM (SEM, n); for Emax: read-out: hGLP-1R Emax, % ± SEM
Method in brief: as §1

[1] = 0.1% bovine casein and 1.0% human serum albumin, 37° C.
[2] = HEK293, 0.1% bovine casein and 1.0% human serum albumin, 37° C., percent of maximal response to GIP(1-42)NH2
[3] = cAMP, incubated at 37° C., 0.1% bovine casein (no human serum albumin)
[4] = HEK293, 0.1% bovine casein and 1.0% human serum albumin, 37° C., percent of maximal response to GLP-1(7-36)NH2
[5] = HEK293, percent of maximal response to GIP(1-42)NH2, 37° C., 0.1% bovine casein, arithmetic mean
[6] = HEK293, percent of maximal response to GLP-1(7-36)NH2, 37° C., 0.1% bovine casein, arithmetic mean

Chain of hGLP-1R (P43220 24-463): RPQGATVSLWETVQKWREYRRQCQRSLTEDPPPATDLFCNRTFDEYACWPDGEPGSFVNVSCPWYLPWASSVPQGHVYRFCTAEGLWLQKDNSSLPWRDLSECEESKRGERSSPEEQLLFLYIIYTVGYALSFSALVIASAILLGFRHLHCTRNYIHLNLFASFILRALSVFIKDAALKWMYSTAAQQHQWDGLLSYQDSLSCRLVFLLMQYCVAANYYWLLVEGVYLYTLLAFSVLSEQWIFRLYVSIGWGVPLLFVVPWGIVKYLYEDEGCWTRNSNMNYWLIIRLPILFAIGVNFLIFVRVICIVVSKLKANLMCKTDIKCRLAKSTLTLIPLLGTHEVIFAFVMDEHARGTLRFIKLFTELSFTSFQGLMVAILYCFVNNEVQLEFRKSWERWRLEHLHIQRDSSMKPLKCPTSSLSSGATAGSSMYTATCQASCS
T2 sequence (P47871 26-477): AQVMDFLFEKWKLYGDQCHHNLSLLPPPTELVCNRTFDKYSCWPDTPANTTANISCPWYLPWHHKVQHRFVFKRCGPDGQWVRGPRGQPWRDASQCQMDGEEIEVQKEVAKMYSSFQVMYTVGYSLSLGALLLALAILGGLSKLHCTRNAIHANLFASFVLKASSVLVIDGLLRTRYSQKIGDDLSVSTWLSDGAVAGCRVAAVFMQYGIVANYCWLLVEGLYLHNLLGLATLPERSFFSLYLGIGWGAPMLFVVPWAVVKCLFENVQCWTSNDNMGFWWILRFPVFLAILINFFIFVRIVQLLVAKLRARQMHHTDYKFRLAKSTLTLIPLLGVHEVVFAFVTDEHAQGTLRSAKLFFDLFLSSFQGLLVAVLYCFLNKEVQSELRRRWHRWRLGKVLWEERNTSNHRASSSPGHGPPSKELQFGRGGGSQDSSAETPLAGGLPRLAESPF

| Structure (SMILES) | EC50 (hGIPR; [1]) | Emax (hGIPR; [2]) | EC50 (hGIPR; [3]) | EC50 (hGCGR; [1]) | EC50 (hGCGR; [3]) | EC50 (hGLP-1R; [1]) | Emax (hGLP-1R; [4]) | EC50 (hGLP-1R; [3]) | Emax (hGIPR; [5]) | Emax (hGLP-1R; [6]) |
| --- | --- | --- | --- | --- | --- | --- | --- | --- | --- | --- |
| CC[C@H](C)[C@H](NC(=O)[C@H](CC(C)C)NC(=O)[C@](C)(Cc1ccc(O)cc1)NC(=O)[C@@H](CCC(=O)O)NC(=O)[C@@H](NC(=O)[C@H](Cc1ccccc1)NC(=O)[C@H](CCC(=O)O)NC(=O)C(C)(C)NC(=O)[C@H](CCC(N)=O)NC(=O)[C@H](C)NC(=O)[C@H](CCCCNC(=O)[C@@H](N)CCCCNC(=O)CC[C@H](NC(=O)CCCCCCCCCCCCC(=O)O)C(=O)O)NC(=O)[C@H](CCCN)NC(=O)[C@H](CC(=O)O)NC(=O)[C@H](CC(C)C)NC(=O)[C@](C)(CC(C)C)NC(=O)[C@@H](NC(=O)[C@H](CO)NC(=O)[C@H](Cc1ccncc1)NC(=O)[C@H](CC(=O)O)NC(=O)[C@H](CO)NC(=O)[C@@H](NC(=O)[C@](C)(Cc1ccccc1F)NC(=O)[C@@H](NC(=O)CNC(=O)[C@H](CCC(=O)O)NC(=O)C(C)(C)NC(=O)[C@@H](N)Cc1ccc(O)cc1)[C@@H](C)O)[C@@H](C)O)[C@@H](C)CC)[C@@H](C)CC)C(=O)N[C@@H](CCC(=O)O)C(=O)NCC(=O)NCC(=O)N[C@@H](CCCCNC(=O)[C@@H](N)CCCCNC(=O)CC[C@H](NC(=O)CCCCCCCCCCCCC(=O)O)C(=O)O)C(=O)N[C@@H](CO)C(=O)N[C@@H](CO)C(=O)NCC(=O)N[C@@H](C)C(=O)N1CCC[C@H]1C(=O)N1CCC[C@H]1C(=O)N1CCC[C@H]1C(=O)N[C@@H](CO)C(N)=O [Example 38] | 0.539 nM | 88.8 ± 0.59% | 0.0155 nM | > 9950 nM | > 9950 nM | 12.5 nM | 115 ± 2.53% | 0.225 nM | – | – |
| CC[C@H](C)[C@H](NC(=O)[C@H](CC(C)C)NC(=O)[C@](C)(Cc1ccc(O)cc1)NC(=O)[C@@H](CCC(=O)O)NC(=O)[C@@H](NC(=O)[C@H](Cc1ccccc1)NC(=O)[C@H](CCC(=O)O)NC(=O)C(C)(C)NC(=O)[C@H](CCC(N)=O)NC(=O)[C@H](C)NC(=O)[C@H](CCCCNC(=O)CC[C@H](NC(=O)COCCOCCNC(=O)CCCCCCCCCCCCC(=O)O)C(=O)O)NC(=O)[C@H](CCCN)NC(=O)[C@H](CC(=O)O)NC(=O)[C@H](CC(C)C)NC(=O)[C@](C)(CC(C)C)NC(=O)[C@@H](NC(=O)[C@H](CO)NC(=O)[C@H](Cc1ccncc1)NC(=O)[C@H](CC(=O)O)NC(=O)[C@H](CO)NC(=O)[C@@H](NC(=O)[C@](C)(Cc1ccccc1F)NC(=O)[C@@H](NC(=O)CNC(=O)[C@H](CCC(=O)O)NC(=O)C(C)(C)NC(=O)[C@@H](N)Cc1ccc(O)cc1)[C@@H](C)O)[C@@H](C)O)[C@@H](C)CC)[C@@H](C)CC)C(=O)N[C@@H](CCC(=O)O)C(=O)NCC(=O)NCC(=O)N[C@@H](CCCCNC(=O)CC[C@H](NC(=O)COCCOCCNC(=O)CCCCCCCCCCCCC(=O)O)C(=O)O)C(=O)N[C@@H](CO)C(=O)N[C@@H](CO)C(=O)NCC(=O)N[C@@H](C)C(=O)N1CCC[C@H]1C(=O)N1CCC[C@H]1C(=O)N1CCC[C@H]1C(=O)N[C@@H](CO)C(N)=O [Example 42] | 1 nM | 91.1 ± 0.67% | 0.0103 nM | > 9950 nM | > 9950 nM | 26.7 nM | – | – | 97.8 ± 7.18% | – |
| CC[C@H](C)[C@H](NC(=O)[C@H](CC(C)C)NC(=O)[C@](C)(Cc1ccc(O)cc1)NC(=O)[C@@H](CCC(=O)O)NC(=O)[C@@H](NC(=O)[C@](C)(Cc1ccccc1)NC(=O)[C@H](CCC(=O)O)NC(=O)C(C)(C)NC(=O)[C@H](CCC(N)=O)NC(=O)[C@H](C)NC(=O)[C@H](CCCCNC(=O)COCCOCCNC(=O)COCCOCCNC(=O)CC[C@H](NC(=O)CCCCCCCCCCCCC(=O)O)C(=O)O)NC(=O)[C@H](CCCN)NC(=O)[C@H](CC(=O)O)NC(=O)[C@H](CC(C)C)NC(=O)[C@](C)(CC(C)C)NC(=O)[C@@H](NC(=O)[C@H](CO)NC(=O)[C@H](Cc1ccncc1)NC(=O)[C@H](CC(=O)O)NC(=O)[C@H](CO)NC(=O)[C@@H](NC(=O)[C@](C)(Cc1ccccc1)NC(=O)[C@@H](NC(=O)CNC(=O)[C@H](CCC(=O)O)NC(=O)C(C)(C)NC(=O)[C@@H](N)Cc1ccc(O)cc1)[C@@H](C)O)[C@@H](C)O)[C@@H](C)CC)[C@@H](C)CC)C(=O)N[C@@H](CCC(=O)O)C(=O)NCC(=O)NCC(=O)N[C@@H](CCCCNC(=O)COCCOCCNC(=O)COCCOCCNC(=O)CC[C@H](NC(=O)CCCCCCCCCCCCC(=O)O)C(=O)O)C(=O)N[C@@H](CO)C(=O)N[C@@H](CO)C(=O)NCC(=O)N[C@@H](C)C(=O)N1CCC[C@H]1C(=O)N1CCC[C@H]1C(=O)N1CCC[C@H]1C(=O)N[C@@H](CO)C(N)=O [Example 47] | – | 85.6% | 0.0138 nM | > 9950 nM | > 9950 nM | 1670 nM | 134% | – | 89.8 ± 1.2% | 87.1 ± 14.1% |
| CC[C@H](C)[C@H](NC(=O)[C@H](CC(C)C)NC(=O)[C@](C)(Cc1ccc(O)cc1)NC(=O)[C@@H](CCC(=O)O)NC(=O)[C@@H](NC(=O)[C@H](Cc1ccccc1)NC(=O)[C@H](CCC(=O)O)NC(=O)C(C)(C)NC(=O)[C@H](CCC(N)=O)NC(=O)[C@H](C)NC(=O)[C@H](CCCCNC(=O)COCCOCCNC(=O)COCCOCCNC(=O)CC[C@H](NC(=O)CCCCCCCCCCCCC(=O)O)C(=O)O)NC(=O)[C@H](CCCN)NC(=O)[C@H](CC(=O)O)NC(=O)[C@H](CC(C)C)NC(=O)[C@](C)(CC(C)C)NC(=O)[C@@H](NC(=O)[C@H](CO)NC(=O)[C@](C)(CC(C)C)NC(=O)[C@H](CC(=O)O)NC(=O)[C@H](CO)NC(=O)[C@@H](NC(=O)[C@](C)(Cc1ccccc1F)NC(=O)[C@@H](NC(=O)CNC(=O)[C@H](CCC(=O)O)NC(=O)C(C)(C)NC(=O)[C@@H](N)Cc1ccc(O)cc1)[C@@H](C)O)[C@@H](C)O)[C@@H](C)CC)[C@@H](C)CC)C(=O)N[C@@H](CCC(=O)O)C(=O)NCC(=O)NCC(=O)N[C@@H](CCCCNC(=O)COCCOCCNC(=O)COCCOCCNC(=O)CC[C@H](NC(=O)CCCCCCCCCCCCC(=O)O)C(=O)O)C(=O)N[C@@H](CO)C(=O)N[C@@H](CO)C(=O)NCC(=O)N[C@@H](C)C(=O)N1CCC[C@H]1C(=O)N1CCC[C@H]1C(=O)N1CCC[C@H]1C(=O)N[C@@H](CO)C(N)=O [Example 51] | – | 90.7% | 0.11 nM | > 9950 nM | > 9950 nM | – | 92.9% | – | – | 85.7 ± 9.8% |
| CC[C@H](C)[C@H](NC(=O)[C@H](CC(C)C)NC(=O)[C@](C)(Cc1ccc(O)cc1)NC(=O)[C@@H](CCC(=O)O)NC(=O)[C@@H](NC(=O)[C@H](Cc1ccccc1)NC(=O)[C@H](CCC(=O)O)NC(=O)C(C)(C)NC(=O)[C@H](CCC(N)=O)NC(=O)[C@H](C)NC(=O)[C@H](CCCCNC(=O)COCCOCCNC(=O)COCCOCCNC(=O)CC[C@H](NC(=O)CCCCCCCCCCCCC(=O)O)C(=O)O)NC(=O)[C@H](CCCN)NC(=O)[C@H](CC(=O)O)NC(=O)[C@H](CC(C)C)NC(=O)[C@](C)(CC(C)C)NC(=O)[C@@H](NC(=O)[C@H](CO)NC(=O)C1(NC(=O)[C@H](CC(=O)O)NC(=O)[C@H](CO)NC(=O)[C@@H](NC(=O)[C@](C)(Cc2ccccc2F)NC(=O)[C@@H](NC(=O)CNC(=O)[C@H](CCC(=O)O)NC(=O)C(C)(C)NC(=O)[C@@H](N)Cc2ccc(O)cc2)[C@@H](C)O)[C@@H](C)O)CCCCC1)[C@@H](C)CC)[C@@H](C)CC)C(=O)N[C@@H](CCC(=O)O)C(=O)NCC(=O)NCC(=O)N[C@@H](CCCCNC(=O)COCCOCCNC(=O)COCCOCCNC(=O)CC[C@H](NC(=O)CCCCCCCCCCCCC(=O)O)C(=O)O)C(=O)N[C@@H](CO)C(=O)N[C@@H](CO)C(=O)NCC(=O)N[C@@H](C)C(=O)N1CCC[C@H]1C(=O)N1CCC[C@H]1C(=O)N1CCC[C@H]1C(=O)N[C@@H](CO)C(N)=O [Example 54] | – | 85.6% | – | > 9950 nM | > 9950 nM | 20.3 nM | – | – | 113% | – |
